Paper PMC10192418, “High-affinity peptides developed against calprotectin and their application as synthetic ligands in diagnostic assays” (Nature Communications, 2023)
Like-named read-outs stand apart in the source and are kept apart here. Numbered stars: 1 amine (or outer) side, 2 acyl side, 3 side chain; on linkers, the order of the positions; unused ones are H or OH. Bridge positions count the residues as written; N and C are the ends. Peptide text beside a SMILES is read from it. * marks the point of attachment. 5FAM = O=C1OC2(c3ccc(O)cc3Oc3cc(O)ccc32)c2ccc(C(=O)*)cc21; X1 = O=C(O)c1cc(C(=O)*)ccc1-c1c2ccc(=O)cc-2oc2cc(O)ccc12; CH2COCH2 = O=C(C[*:1])C[*:2]

Columns and labels:
[1] = target: T1, calprotectin tetramer (recombinant B-RCAL) (Homo sapiens, UniProt P05109); test: biochemical
T1 sequence (P05109 with tags, fused parts or gaps): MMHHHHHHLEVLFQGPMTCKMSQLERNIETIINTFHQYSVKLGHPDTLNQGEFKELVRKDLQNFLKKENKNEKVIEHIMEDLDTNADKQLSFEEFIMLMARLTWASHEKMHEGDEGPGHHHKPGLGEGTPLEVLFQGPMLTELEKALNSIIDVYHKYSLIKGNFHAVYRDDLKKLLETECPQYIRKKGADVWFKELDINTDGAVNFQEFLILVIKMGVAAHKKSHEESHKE
Description: SPR measurements were performed using a Biacore^TM 8 K instrument (GE Healthcare) using the Biacore^TM 8 K Control software. Recombinant calprotectin (B-RCAL) was diluted with 10 mM acetate buffer (pH 5.0) to reach a concentration of 5 μg/mL and immobilized on a CM5 series S chip using the standard amine coupling method in running buffer (10 mM HEPES pH 7.4, 150 mM NaCl, 2 mM CaCl2, and 0.005% v/v Tween-20) at 25 °C and the following procedure. At a flow of 10 μL/min, the following solutions were injected: 420 s 0.4 M EDC, 0.1 M NHS; 100 to 200 s protein; 500 s 1 M ethanolamine-HCl pH 8.5. Typical immobilization levels were 3000 resonance units (RUs). A reference cell was treated in the same way but without the injection of protein. A single concentration for each peptide (500 nM) was injected in a running buffer containing 0.5% (v/v) DMSO to measure the binding level. For the measurement of binding kinetics and dissociation constants, five serial dilutions (threefold) of peptides were prepared in running buffer containing 0.5% (v/v) DMSO and analyzed in single cycle kinetics mode with the contact and dissociation times of 90 s and 120 s, respectively. Data were analyzed using Biacore^TM 8 K Evaluation software.

[2] = target: T2, native calprotectin (tetramer, + CaCl2) (Homo sapiens, UniProt P05109+P06702); test: FP binding to native calprotectin derived from granulocytes
T2 construct: Native calprotectin is derived from granulocytes; tissue gift from Thomas Vogl, Institute of Immunology, University of Muenster; host or cells: granulocytes
T2 sequence (P05109 1-93): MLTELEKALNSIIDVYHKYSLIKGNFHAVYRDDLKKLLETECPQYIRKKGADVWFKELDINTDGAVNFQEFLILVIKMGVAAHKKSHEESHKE
T2 sequence (P06702 2-114 limits assumed): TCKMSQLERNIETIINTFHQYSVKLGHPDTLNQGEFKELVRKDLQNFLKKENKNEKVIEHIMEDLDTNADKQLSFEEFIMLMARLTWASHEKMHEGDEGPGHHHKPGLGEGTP
Description: Fluorescence anisotropy was measured on a microwell plate reader (Infinite M200Pro, Tecan) with filters for excitation at 485 nm and emission at 535 nm. The dissociation constant (Kd) was calculated using a following Eq. […] [L]T is the concentration of the total fluorescent ligand and [P]T the concentration of the protein. Native calprotectin is derived from granulocytes (kind gift from Thomas Vogl, Institute of Immunology, University of Muenster) and was purified as described in ref. [34]. The size and concentration was analyzed and compared to B-RCAL by standard SDS-PAGE.

[3] = target: T3, calprotectin tetramer (recombinant B-RCAL, His6-linker-S100A9-linker-S100A8) (Homo sapiens, UniProt P05109); test: Fluorescence polarization (FP) binding to recombinant calprotectin B-RCAL tetramer in presence of CaCl2; conditions: for effect of mutation to alanine on binding: alanine scan of linear peptide 3, found via FP and SPR
T3 construct: we used the recombinant protein without removing the His-tag or cleaving the 8-amino acid linker between the two proteins; co-authors' company
T3 sequence (P05109 with tags, fused parts or gaps): T1 sequence (P05109 with tags, fused parts or gaps)
Description: Calprotectin was serially diluted in 20 mM HEPES, 100 mM NaCl, 2 mM CaCl2, pH 7.5, and 1 mM DTT with 0.01% (v/v) Tween-20. Volumes of 16 μL of protein were added to 4 μL of fluorescent peptide (20 nM final concentration) in black 384-well microtiter plates. Fluorescence anisotropy was measured on a microwell plate reader (Infinite M200Pro, Tecan) with filters for excitation at 485 nm and emission at 535 nm. The dissociation constant (Kd) was calculated using a following Eq. (1) using Prism 5 software (GraphPad):1 A=Af+Ab−Af×LT+KD+PT−LT+KD+PT^2−4LTPT/2LT where A is anisotropy, Af and Ab are the anisotropy values for free and bound ligands, respectively. [L]T is the concentration of the total fluorescent ligand and [P]T the concentration of the protein.

[4] = Methionine oxidation of peptide upon storage in solution; assay type: physicochemical
[5] = target: T1, calprotectin tetramer (recombinant B-RCAL); test: SPR binding level at a single peptide concentration (500 nM); set-up: we used the recombinant protein without removing the His-tag or cleaving the 8-amino acid linker between the two proteins; co-authors' company; conditions: peptides injected at 500 nM, single measurement
Description: Typical immobilization levels were 3000 resonance units (RUs).

[6] = FP, alanine scan of linear peptide 3, 20 nM peptide, 2 mM CaCl2, one measurement, NB = non-binding

Row | SMILES | Response at binding [5] [RU] | effect of mutation to alanine on binding [3] | further results
1 | CSCC[C@H](NC(=O)[C@@H]1CCCN1C(=O)[C@H](Cc1ccccc1)NC(=O)[C@H](C)NC(=O)[C@@H](NC(=O)[C@@H]1CSCC(=O)CSC[C@H](NC(=O)[C@H](CCCNC(=N)N)NC(=O)c2ccc3c(c2)C(=O)OC32c3ccc(O)cc3Oc3cc(O)ccc32)C(=O)N2CCC[C@H]2C(=O)N[C@@H](CCC(=O)O)C(=O)N1)C(C)C)C(=O)N[C@@H](Cc1ccccc1)C(=O)N[C@@H](CCC(N)=O)C(=O)N[C@H]1CSCC(=O)CSC[C@@H](C(=O)NCC(N)=O)NC(=O)[C@H](Cc2ccc(O)cc2)NC(=O)[C@H](Cc2c[nH]c3ccccc23)NC(=O)[C@H](Cc2c[nH]cn2)NC1=O (single isomer, unassigned) [Peptide 3 Isomer 1] |  |  | Kd [1]: 51 nM; Kd [2]: 26 ± 2 nM; Kd [3]: 24 ± 10 nM
2 | CSCC[C@H](NC(=O)[C@@H]1CCCN1C(=O)[C@H](Cc1ccccc1)NC(=O)[C@H](C)NC(=O)[C@@H](NC(=O)[C@@H]1CSCC(=O)CSC[C@H](NC(=O)[C@H](CCCNC(=N)N)NC(=O)c2ccc(-c3c4ccc(=O)cc-4oc4cc(O)ccc34)c(C(=O)O)c2)C(=O)N2CCC[C@H]2C(=O)N[C@@H](CCC(=O)O)C(=O)N1)C(C)C)C(=O)N[C@@H](Cc1ccccc1)C(=O)N[C@@H](CCC(N)=O)C(=O)N[C@H]1CSCC(=O)CSC[C@@H](C(=O)NCC(N)=O)NC(=O)[C@H](Cc2ccc(O)cc2)NC(=O)[C@H](Cc2c[nH]c3ccccc23)NC(=O)[C@H](Cc2c[nH]cn2)NC1=O [Peptide 3] (X1-RCPECVAFPMFQCHWYCG-NH2; linker 2-5, 13-17 via CH2COCH2) |  |  | oxidation upon storage in solution [4]: a small quantity was oxidized; Kd ([3]; FP, 20 nM peptide, 2 mM CaCl2, Rep 1): 20 nM; FP increase upon binding to calprotectin ([3]; FP, 2 mM CaCl2): around 50%
3 | CSCC[C@H](NC(=O)[C@@H]1CCCN1C(=O)[C@H](C)NC(=O)[C@H](C)NC(=O)[C@@H](NC(=O)[C@H](CO)NC(=O)[C@H](CCC(=O)O)NC(=O)[C@@H]1CCCN1C(=O)[C@H](CO)NC(=O)[C@H](CCCNC(=N)N)NC(=O)c1ccc2c(c1)C(=O)OC21c2ccc(O)cc2Oc2cc(O)ccc21)C(C)C)C(=O)N[C@@H](Cc1ccccc1)C(=O)N[C@@H](CCC(N)=O)C(=O)N[C@@H](CO)C(=O)N[C@@H](Cc1c[nH]cn1)C(=O)N[C@@H](Cc1c[nH]c2ccccc12)C(=O)N[C@@H](Cc1ccc(O)cc1)C(=O)N[C@@H](CO)C(=O)NCC(N)=O [Peptide F8A] (5FAM-RSPESVAAPMFQSHWYSG-NH2) | -0.0133 | complete loss in binding | 
4 | CSCC[C@H](NC(=O)[C@@H]1CCCN1C(=O)[C@H](Cc1ccccc1)NC(=O)[C@H](C)NC(=O)[C@@H](NC(=O)[C@H](CO)NC(=O)[C@H](CCC(=O)O)NC(=O)[C@@H]1CCCN1C(=O)[C@H](CO)NC(=O)[C@H](CCCNC(=N)N)NC(=O)c1ccc2c(c1)C(=O)OC21c2ccc(O)cc2Oc2cc(O)ccc21)C(C)C)C(=O)N[C@@H](C)C(=O)N[C@@H](CCC(N)=O)C(=O)N[C@@H](CO)C(=O)N[C@@H](Cc1c[nH]cn1)C(=O)N[C@@H](Cc1c[nH]c2ccccc12)C(=O)N[C@@H](Cc1ccc(O)cc1)C(=O)N[C@@H](CO)C(=O)NCC(N)=O [Peptide F11A] (5FAM-RSPESVAFPMAQSHWYSG-NH2) | -1.75 | complete loss in binding | 
5 | CSCC[C@H](NC(=O)[C@@H]1CCCN1C(=O)[C@H](Cc1ccccc1)NC(=O)[C@H](C)NC(=O)[C@@H](NC(=O)[C@H](CO)NC(=O)[C@H](CCC(=O)O)NC(=O)[C@@H]1CCCN1C(=O)[C@H](CO)NC(=O)[C@H](CCCNC(=N)N)NC(=O)c1ccc2c(c1)C(=O)OC21c2ccc(O)cc2Oc2cc(O)ccc21)C(C)C)C(=O)N[C@@H](Cc1ccccc1)C(=O)N[C@@H](CCC(N)=O)C(=O)N[C@@H](CO)C(=O)N[C@@H](C)C(=O)N[C@@H](Cc1c[nH]c2ccccc12)C(=O)N[C@@H](Cc1ccc(O)cc1)C(=O)N[C@@H](CO)C(=O)NCC(N)=O [Peptide H14A] (5FAM-RSPESVAFPMFQSAWYSG-NH2) | 10 | complete loss in binding | 
6 | CC(C)[C@H](NC(=O)[C@H](CO)NC(=O)[C@H](CCC(=O)O)NC(=O)[C@@H]1CCCN1C(=O)[C@H](CO)NC(=O)[C@H](CCCNC(=N)N)NC(=O)c1ccc2c(c1)C(=O)OC21c2ccc(O)cc2Oc2cc(O)ccc21)C(=O)N[C@@H](C)C(=O)N[C@@H](Cc1ccccc1)C(=O)N1CCC[C@H]1C(=O)N[C@@H](C)C(=O)N[C@@H](Cc1ccccc1)C(=O)N[C@@H](CCC(N)=O)C(=O)N[C@@H](CO)C(=O)N[C@@H](Cc1c[nH]cn1)C(=O)N[C@@H](Cc1c[nH]c2ccccc12)C(=O)N[C@@H](Cc1ccc(O)cc1)C(=O)N[C@@H](CO)C(=O)NCC(N)=O [Peptide M10A] (5FAM-RSPESVAFPAFQSHWYSG-NH2) | 7 | complete loss in binding | 
7 | CSCC[C@H](NC(=O)[C@@H]1CCCN1C(=O)[C@H](Cc1ccccc1)NC(=O)[C@H](C)NC(=O)[C@H](C)NC(=O)[C@H](CO)NC(=O)[C@H](CCC(=O)O)NC(=O)[C@@H]1CCCN1C(=O)[C@H](CO)NC(=O)[C@H](CCCNC(=N)N)NC(=O)c1ccc2c(c1)C(=O)OC21c2ccc(O)cc2Oc2cc(O)ccc21)C(=O)N[C@@H](Cc1ccccc1)C(=O)N[C@@H](CCC(N)=O)C(=O)N[C@@H](CO)C(=O)N[C@@H](Cc1c[nH]cn1)C(=O)N[C@@H](Cc1c[nH]c2ccccc12)C(=O)N[C@@H](Cc1ccc(O)cc1)C(=O)N[C@@H](CO)C(=O)NCC(N)=O [Peptide V6A] (5FAM-RSPESAAFPMFQSHWYSG-NH2) |  |  | Kd [3, 6]: 39 nM
8 | CSCC[C@H](NC(=O)[C@@H]1CCCN1C(=O)[C@H](Cc1ccccc1)NC(=O)[C@H](C)NC(=O)[C@@H](NC(=O)[C@H](CO)NC(=O)[C@H](CCC(=O)O)NC(=O)[C@@H]1CCCN1C(=O)[C@H](CO)NC(=O)[C@H](CCCNC(=N)N)NC(=O)c1ccc2c(c1)C(=O)OC21c2ccc(O)cc2Oc2cc(O)ccc21)C(C)C)C(=O)N[C@@H](Cc1ccccc1)C(=O)N[C@@H](CCC(N)=O)C(=O)N[C@@H](CO)C(=O)N[C@@H](Cc1c[nH]cn1)C(=O)N[C@@H](C)C(=O)N[C@@H](Cc1ccc(O)cc1)C(=O)N[C@@H](CO)C(=O)NCC(N)=O [Peptide W15A] (5FAM-RSPESVAFPMFQSHAYSG-NH2) |  |  | Kd [3, 6]: 24 nM
9 | CSCC[C@H](NC(=O)[C@@H]1CCCN1C(=O)[C@H](Cc1ccccc1)NC(=O)[C@H](C)NC(=O)[C@@H](NC(=O)[C@H](CO)NC(=O)[C@H](CCC(=O)O)NC(=O)[C@@H]1CCCN1C(=O)[C@H](CO)NC(=O)[C@H](CCCNC(=N)N)NC(=O)c1ccc2c(c1)C(=O)OC21c2ccc(O)cc2Oc2cc(O)ccc21)C(C)C)C(=O)N[C@@H](Cc1ccccc1)C(=O)N[C@@H](CCC(N)=O)C(=O)N[C@@H](CO)C(=O)N[C@@H](Cc1c[nH]cn1)C(=O)N[C@@H](Cc1c[nH]c2ccccc12)C(=O)N[C@@H](C)C(=O)N[C@@H](CO)C(=O)NCC(N)=O [Peptide Y16A] (5FAM-RSPESVAFPMFQSHWASG-NH2) | 6 | complete loss in binding | 
